The results in this text go back to patent publication US5321032A, “Peptide compounds and pharmaceutical compositions thereof” (priority 1990, dated 1994).

Structures are written as SMILES.

The target in the test is T1, substance P receptor (Cavia porcellus, UniProt P30547).
T1 construct: The trachea and lung were removed and homogenized in buffer; from tissue; host or cells: guinea pig trachea and lung, crude membrane fraction
T1 sequence (P30547 whole entry): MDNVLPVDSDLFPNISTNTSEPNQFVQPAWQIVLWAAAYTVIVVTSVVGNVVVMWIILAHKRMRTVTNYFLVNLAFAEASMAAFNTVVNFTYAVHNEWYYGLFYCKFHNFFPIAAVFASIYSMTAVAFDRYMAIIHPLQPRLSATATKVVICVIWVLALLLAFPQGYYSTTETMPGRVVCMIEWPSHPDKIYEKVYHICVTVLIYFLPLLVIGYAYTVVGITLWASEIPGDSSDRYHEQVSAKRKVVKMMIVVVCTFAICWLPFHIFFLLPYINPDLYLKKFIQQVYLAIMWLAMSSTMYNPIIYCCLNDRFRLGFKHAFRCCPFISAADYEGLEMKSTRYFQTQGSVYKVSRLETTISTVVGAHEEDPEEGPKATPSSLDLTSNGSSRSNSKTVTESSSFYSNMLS
Nature of the test: 3H-Substance P binding to guinea pig crude lung membrane preparation. The settings on record: test compound 1 μg/ml; 3H-substance P 1 nM; crude lung membrane fractions, 4° C., 30 minutes. As for the experimental part: 1. Binding with ^3 H-P substance receptor
(a) Crude lung membrane preparation
Male Hartly strain guinea pigs were sacrificed by decapitation, The trachea and lung were removed and homogenized in buffer (0.25M sucrose, 50 mM Tris-HCl pH 7.5, 0.1 mM MEDTA) by using Polytoron (Kinematica). The homogenate was centrifuged (1000 x g, 10 min) to remove tissue clumps and the supernatant was centrifuges (14000 x g, 20 min) to yield pellets. The pellets were resuspended in buffer (5 mM Tris-HC1 pH 7.5), homofenized with a teflon homogenizer and centrifuged (14000 x g, 20 min) to yield pellets which were referred to crude membrane fractions. The obtained pallets were stored at -70 ° C. until use.
(b) ^3 H-Substance P binding to preparation membrane
Frozen crude membrane fractions were thawed and resuspended in Medium 1 (50 mM Tris-HC1 pH 7.5, 5 mM MnCl2, 0.02% BSA, 2 μg/ml chymostatin, 4 μg/ml leupeptin, 40 μg/ml bacitaracin). ^3 H-substance P (1 nM ) was incubated with 100 μl of the membrane preparation in Medium 1 at 4° C. for 30 minutes in a final volume of 500 μl. At the end of the incubation over a Whatman GF/B glass filter (pretreated with 0.1% polyethylene imine for 3 hours prior to use) under aspiration. The filters werre then washed four times with 5 ml of the buffer (50 mM Tris-HCl, pH 7.5). The radioactivity was counted in 5 ml of Aquazol-2 in Packerd scintillation counter (Packerd TRI-CARB 4530).
As for `CC(=O)N[C@H](C(=O)N[C@H](Cc1cn(C=O)c2ccccc12)C(=O)N[C@@H](Cc1cccs1)C(=O)N(C)Cc1ccccc1)[C@@H](C)O` [(a)], the “suppression rate (%)” value worked out at 100%.

With `CC(=O)N[C@H](C(=O)N[C@H](Cc1cn(C=O)c2ccccc12)C(=O)N1Cc2ccccc2C[C@@H]1C(=O)N(C)Cc1ccccc1)[C@@H](C)O` [(b)], the “suppression rate (%)” value stood at 99%.

Regarding `CC(=O)N[C@H](C(=O)N[C@H](Cc1cn(C=O)c2ccccc12)C(=O)N(C)[C@@H](Cc1ccccc1)C(=O)N(C)Cc1ccccc1)[C@@H](C)O` [(c)], the “suppression rate (%)” value stood at 96%.
